Measured values from US11841361B2, “Microfluidic proximal tubule kidney-on-chip” (EMULATE, INC., priority 2019, dated 2023).

How the values were obtained:
in vitro = conditions: human
Procedure: (§1) Additional transporter Tier 1 test substrates/substances include but are not limited to: 1. […] TEA; 4. PAH; 5. Estrone-3-sulfate (E3S); 6. Glycylsarcosine. In some embodiments, microfluidic devices are treated with a substance followed by a 30 minute flushing cycle. In some embodiments, microfluidic devices under go 100 ul/hr of flow during transported function measurements.
(§2) Permeability from the vascular (V) to luminal (L) direction (Papp(V−L)) and permeability from the luminal to vascular direction (Papp(L−V)) were determined along with calculating the efflux ratio (Papp(V−L)/PapP(L−V)). […] However, the values were included in the calculations to calculate the efflux ratio.

[1] = Prediction of clearance versus clinical values; conditions: proximal tubule Kidney chip
OCT1/MATE1/MATE2-K = assay: in vitro; conditions: human, Kidney-Chip (Proximal Tubule), probe TEA
Source text: (§3) Substrates for transporters are termed “victim”.

OCT2/MATE1/MATE2-K = assay: in vitro; conditions: human, Kidney-Chip (Proximal Tubule), probe Meformin (so in the source); metformin)
Source text: as §3

[2] = test system: Proximal Tubule Kidney-Chip; assay: Creatinine and PAH secretion/transport in PT Kidney-Chip; type: in vitro ADME, human; conditions: for mass balance: compound loss (inlet/outlet) in chip system / active transport (B-A versus A-B transport): S1 and HS chips; for active transport (B-A versus A-B transport): Day 8 and Day 15
Procedure: (§4) To measure creatinine secretion in the Proximal Tubule Kidney-Chip, the vascular compartment is perfused with medium containing 1 mg/dL of human creatinine, while the secretion of creatinine in the top channel is measured from chip effluent. Exemplary assay flow rate (Proximal Tubule Kidney-Chip) during this assays is 60 μL/hour. In some embodiments, samples of effluent are collected in outlet reservoirs of the module. In preferred embodiments, there is no dilution of effluent when using an exemplary commercial kit, e.g. Invitrogen™ Creatine Urinary Detection Kit (Thermo Fisher EIACUN as described at thermofisher.com, downloaded Jun. 20, 2019).
(§5) In some embodiments, creatinine transport is determined in relation to chip configuration and low vs. high flow. Creatinine Secretion: Creatinine Loss (BI-BO); Creatinine filtration (TO/BO); Apical Creatinine (TO).
(§6) After activation, S1 (tall channel) chips and high shear chips are coated with Emulate ECM (i.e. Col IV+ Matrigel) on the side of the membrane (typically the top channel) intended for seeding with PT Kidney Cells. For monocultures, proximal tubular cells are seeded into the channel with the ECM coated membrane. For co-culturing PT Kidney Cells (system), glomerular microvascular endothelial cells are seeded on bottom channel and incubated for overnight. The following day, proximal tubular cells are seeded into the top channel (where the membrane is coated with ECM) and cultured for 2 days under static conditions, i.e. no fluid flow. Chips will be connected to a culture module at day 3 along with starting flow at 150 ul/h for both channels. Media should be replenished daily. At day 7, PAH and Creatinine will be dosed Apically under a 150 ul/h flow rate then A to B transport will be measured. Initial collection (after 2 hours) will be discard and during the following 22 hours effluent fluid (media) will be collected at desired times for measurements. At day 8, PAH and Creatinine will then be dosed Basally at 150 ul/h flow rate and B to A transport will be measured. Initial collection during 2 hours will be discarded and over the following 22 hours, the media will be collected for measurement. At day 9, the chip will be return to culture mode and cultured for additional […]. At day 14 PAH and Creatinine will be dosed Apically at 150 ul/h flow rate and A to B transport will be measured. Initial collection (2 hours) will be discard and during the following 22 hours the media will be collected for measurement. At day 15, PAH and Creatinine will be dosed Basally at 150 ul/h flow rate and B to A transport will be measured. Initial collection during 2 hours will be discarded and the following 22 hours, the media will be collected for measurement.

[3] = as above; type: in vitro ADME, human; conditions: human, Proximal Tubule Kidney-Chip; read-out: recovery of compound in the chip
Procedure: as §4, §5, §6

[4] = Material absorption into Kidney-Chip and perfusion manifold materials; type: physicochemical; conditions: REGM serum-free medium; 1-72 hr; glass control
Source text: In some embodiments, Material Absorption is one exemplary readout. When testing compounds added to a PT Kidney Chip, a determination of material absorption is made for that compound. The following is a exemplary method for determining material adsorption of a compound.
Study Conditions. Study approach: Each experiment includes a number of controls and test conditions. These allow us to tease out: Adsorption to the vial/well-plate. Absorption vs. adsorption to the tested material.
• 1. Dissolve the small molecule in an aqueous phase (medium) and incubate it with the tested material. • 2. Measure the concentration of small molecule remaining in the aqueous phase (using mass spec, plate reader). • 3. Curve-fit the measured data to quantify the absorption and diffusion parameters.

[5] = test system: Proximal Tubule Kidney-Chip; assay: Efflux ratio / permeability of probe substrates in Proximal Tubule Kidney-Chip
Procedure: as §1, §2

[6] = test system: P-gp (digoxin); MATE1/MATE2-K (metformin); OAT1 (PAH); assay: in vitro
[7] = test system: Transwell kidney cell cultures; assay: Efflux ratio of probe substrates in Transwell cultures; conditions: no inhibitor
[8] = test system: proximal tubular epithelium; assay: Nephrotoxicity testing in Proximal Tubule Kidney-Chip; type: cell-based, human
PT Kidney-Chip = assay: Barrier function: inulin leakage in PT Kidney-Chip; type: in vitro ADME, human; conditions: inulin added to apical channel

Nc1ncnc2c1ncn2CCOCP(=O)(O)O [Adefovir]
efflux ratio (in vitro; Kidney-Chip Efflux Ratio): 2.01 | predicted clearance value as % of clinical value [1]: 85%

CN/C(=N/CCSCc1nc[nH]c1C)NC#N [Cimetidine]
IC50 (OCT1/MATE1/MATE2-K): 3.16 µM | IC50 (OCT2/MATE1/MATE2-K): 4.41 µM | reduction of PAH secretion ([2]; S1 chip, trend, statistically not significant): 10%

CN1CC(=O)NC1=N [Creatinine, 2-amino-1-methyl-5H-imadazol-4-one]
recovery [3]: ~100% | mass balance: compound loss (inlet/outlet) in chip system [2]: No significant creatinine loss | active transport (B-A versus A-B transport) [2]: significant active transport | Creatinine loss (BI-BO) ([2]; bottom channel): 2.5 to 4 mM | creatinine filtration (TO/BO) ([2]; low flow): About 50%

C[C@H]1O[C@@H](O[C@H]2[C@@H](O)C[C@H](O[C@H]3[C@@H](O)C[C@H](O[C@H]4CC[C@@]5(C)[C@H](CC[C@@H]6[C@@H]5C[C@@H](O)[C@]5(C)[C@@H](C7=CC(=O)OC7)CC[C@]65O)C4)O[C@@H]3C)O[C@@H]2C)C[C@H](O)[C@@H]1O [Digoxin]
absorption into system materials (chip material, perfusion manifold material) [4]: Minimal absorption

C[C@]12CC[C@@H]3c4ccc(OS(=O)(=O)O)cc4CC[C@H]3[C@@H]1CCC2=O [Estrone-3-sulfate]
absorption into system materials (chip material, perfusion manifold material) [4]: Minimal absorption

CN(C)C(=N)N=C(N)N [Metformin]
efflux from the vascular channel to the luminal channel ([5]; day 8, S1 chip, 30 μL/hr, time-dependent): significant efflux

Nc1ccc(C(=O)NCC(=O)O)cc1 [PAH, p-aminohippuric acid]
efflux ratio (in vitro; Kidney-Chip Efflux Ratio): 4.84 | efflux ratio (in vitro; efflux ratio): 2.4 to 2.7 | recovery [3]: ~100% | mass balance: compound loss (inlet/outlet) in chip system [2]: No significant PAH loss | active transport (B-A versus A-B transport) [2]: significant active transport | PAH loss (BI-BO) ([2]; bottom channel): 20 to 40 µg/mL | PHA transport (TO/BO) ([2]; low flow): about 20% | efflux ratio [6]: 1.37 | predicted clearance value as % of clinical value [1]: 72%

CCCN(CCC)S(=O)(=O)c1ccc(C(=O)O)cc1 [Probenecid]
reduction of creatinine secretion ([2]; S1 chip, inhibitor incubated 3 hours, trend, statistically not significant): 10%

CC[N+](CC)(CC)CC [TEA, Tetraethylammonium]
Kidney-Chip Efflux Ratio ([5]; no inhibitor): 6.95+/−0.60 | efflux ratio ([5]; transport studies comparing different flow rates, conditions tested): > 2 | Transwell Efflux Ratio [7]: 1.11+/−0.06

CC[C@@]1(O)C(=O)OCc2c1cc1n(c2=O)Cc2cc3c(CN(C)C)c(O)ccc3nc2-1 [Topotecan]
absorption into system materials (chip material, perfusion manifold material) [4]: Minimal absorption

CCCCC(=O)N(Cc1ccc(-c2ccccc2-c2nnn[nH]2)cc1)[C@H](C(=O)O)C(C)C [Valsartan]
absorption into system materials (chip material, perfusion manifold material) [4]: Minimal absorption

Gentamicin
LDH in medium effluent ([8]; 10 mM, 48 hours): significant increase | N-acetyl-beta-(D)-glucosaminidase activity (NAG) in medium effluent ([8]; 10 mM, 48 hours): significant increases | TUNEL assay ([8]; 10 mM, 48 hours): significant DNA damage | active caspase-3 in cells lysates ([8]; 10 mM, 48 hours): increase | microscopic analysis of the proximal tubular epithelium ([8]; 10 mM, 48 hours): structural damage | reactive oxygen species (ROS) ([8]; 10 mM, 48 hours): significant increases | Morphology ([8]; dosing at Day 7 for 24 h, Gentamicin 10 mM, Cisplatin 100 μM): Damaged

inulin
Inulin leakage into the basal channel (PT Kidney-Chip): no significant inulin leakage
